# Source: ChEMBL document CHEMBL3779822, “Indolyl-3-ethanone-α-thioethers: A promising new class of non-toxic antimalarial agents” (Eur J Med Chem, 2016)
# Experiments:
# HeLa = test: Growth inhibition of human HeLa cells after 48 hrs by resazurin assay; format: cell-based
# Plasmodium falciparum = test: Antiplasmodial activity against Plasmodium falciparum 3D7 infected in human erythrocytes assessed as inhibition of parasite growth after 48 hrs by parasite lactate dehydrogenase assay; format: functional, organism-based; conditions: 3D7, 48 h
# [1] = Selectivity index, ratio if IC50 for human HeLa cells to IC50 for Plasmodium falciparum 3D7; format: functional
SMILES,IC50 (HeLa) [µM],IC50 (Plasmodium falciparum) [µM],Ratio IC50 [1]
O=C(CSc1ccc(Br)cc1)c1c[nH]c2c(F)cccc12,> 500,2.4,208
CC(C)(C)c1ccc(SCC(=O)c2c[nH]c3ccccc23)cc1,> 500,8.9,56
O=C(CSCc1ccc(Cl)cc1)c1c[nH]c2ccccc12,> 500,> 500,–
O=C(CSc1ccc(Br)cc1)c1cn(Cc2ccccc2)c2ccccc12,> 500,2.7,185
O=C(CSc1ccc(Br)cc1)c1c[nH]c2cc(Br)c(F)cc12,> 500,19,26
O=C(CNc1ccc(Cl)cc1)c1c[nH]c2ccccc12,16,29,0.6
O=C(CSc1ccc(F)cc1)c1c[nH]c2ccccc12,> 500,1.7,294
CC[C@H]1CN2CCc3cc(OC)c(OC)cc3[C@@H]2C[C@@H]1C[C@H]1NCCc2cc(OC)c(OC)cc21 [EMETINE],0.37,–,–
O=C(CSc1ccc(Br)cc1)c1c[nH]c2ccc(Br)cc12,> 500,0.12,4167
O=C(CSc1ccc(Br)cc1)c1c[nH]c2cc(Cl)ccc12,> 500,2.8,179
O=C(CSCCc1ccccc1)c1c[nH]c2ccccc12,14,7.8,2
O=C(CSc1ccccc1)c1c[nH]c2ccccc12,284,29,10
O=C(CSc1ccc(Br)cc1)c1c[nH]c2cc(F)ccc12,> 500,1.3,385
CN(C)c1ccc(SCC(=O)c2c[nH]c3ccccc23)cc1,60,105,1
O=C(CSc1cccc(Br)c1)c1c[nH]c2ccccc12,> 500,106,5
O=C(CSc1ccc(Br)cc1)c1c[nH]c2cc(Br)ccc12,> 500,279,2
O=C(CSc1ccc([N+](=O)[O-])cc1)c1c[nH]c2ccccc12,> 500,0.24,2083
Cn1cc(C(=O)CSc2ccc(Br)cc2)c2ccccc21,> 500,15,33
O=C(CSCc1ccccc1)c1c[nH]c2ccccc12,> 500,131,4
O=C(CSc1ccc(Br)cc1)c1c[nH]c2ccc(Cl)cc12,> 500,0.09,5556
O=C(CSc1ccccc1Cl)c1c[nH]c2ccccc12,> 500,> 500,–
O=C(CSc1ccc(Br)cc1)c1c[nH]c2cc(Cl)c(F)cc12,> 500,12,42

# Continued, in another order:
IC50 (HeLa) [µM],SMILES,IC50 (Plasmodium falciparum) [µM],Ratio IC50 [1]
> 500,O=C(CSc1cccc(F)c1)c1c[nH]c2ccccc12,3.9,128
> 500,O=C(CNc1ccccc1)c1c[nH]c2ccccc12,73,7
> 500,O=C(CSCc1ccc(Br)cc1)c1c[nH]c2ccccc12,> 500,–
36,Nc1ccc(SCC(=O)c2c[nH]c3ccccc23)cc1,20,2
56,O=C(CSc1ccc(Br)cc1)c1c[nH]c2c(I)cccc12,45,1
> 500,O=C(CSc1ccc(Cl)cc1)c1c[nH]c2ccccc12,1.4,357
> 500,Cc1ccccc1SCC(=O)c1c[nH]c2ccccc12,12,42
> 500,O=C(CSc1cccc(Cl)c1)c1c[nH]c2ccccc12,44,11
> 500,O=C(CSc1ccc(Br)cc1)c1c[nH]c2ccccc12,1.3,385
> 500,O=C(COc1ccc(Cl)cc1)c1c[nH]c2ccccc12,1.8,278
> 500,Cc1ccc(SCC(=O)c2c[nH]c3ccccc23)cc1,19,26
76,CC(SCC(=O)c1c[nH]c2ccccc12)c1ccccc1 (stereo not drawn),122,1
> 500,O=C(CSCc1ccc(F)cc1)c1c[nH]c2ccccc12,58,9
224,Cc1cc(Br)c2[nH]cc(C(=O)CSc3ccc(Br)cc3)c2c1,1.8,124
> 500,O=C(COc1ccccc1)c1c[nH]c2ccccc12,> 500,–
35,O=C(CSCc1cccc(Br)c1)c1c[nH]c2ccccc12,13,3
